Results published in EP1059033A1, “INDUSTRIAL ANTIBACTERIAL/ANTIFUNGAL AGENTS, ALGICIDES AND ANTI-BIOLOGICAL ADHESION AGENTS CONTAINING BENZYLAMINES” (Nissan Chemical Industries, Ltd., priority 1998, dated 1999).
In brackets after ≈: the same amount, converted by molar mass.

Assays:
Format in all cases: cell-based
[1] = tested on: seawater diatom [Nitzschia closterium]; test: Inhibition of propagation of seawater diatom (Example 5); details: Cylindrotheca closterium, 72 h, read-out: Propagation inhibiting rate(%) 500ppb
Experimental: A predetermined amount of each of the compounds of the invention was dissolved in culture media containing 10^5 /ml of a seawater diatom [Nitzschia closterium] at a logarithmic growth phase to prepare samples having a concentration of the compound in the medium of 500 ppb. The samples were stationary cultured at 22±1 °C for […] under continuous illumination.
After 72 hours, cells were collected by centrifugation and disrupted by addition of methanol to extract chlorophyll, and the amount of chlorophyll was measured from absorbance using a spectrophotometer to obtain propagation rate. The propagation inhibiting rate was calculated from comparison with the non-treated lot.

[2] = tested on: Trichophyton mentagrophytes; test: Agar dilution MIC (Example 2); details: 168 h, agar plate, 27 °C, 7 days
Experimental: (§1) Series of diluted samples (20000, 10000, 5000, 2500, 2000, 1250, 625, 313, 156, 78, 39, 20, 10, 5, 2.5, 1.25 mg/l) of the compounds of the invention were prepared using dimethylsulfoxide. A sensitive culture medium-N (Nissui Seiyaku Co.) was used for bacteria and a potato dextrose agar culture medium (Nissui Seiyaku Co.) was used for fungi. 0.5 ml of each sample was added to and mixed with 9.5 ml of the culture medium, poured into a Petri dish and solidified to obtain a plate. As a result, the concentration of the compounds of the invention in the agar culture medium were 1000, 500, 250, 125, 100, 62.5, 31.3, 15.6, 7.8, 3.9, 2.0, 1.0, 0.5, 0.25, 0.125, 0.062 mg/l. The bacterium inoculated were cultured in a bouillon for the assay of sensitivity (Nissui Seiyaku Co.) at 37 °C for 20 hours, and the fungi were cultured in the potato dextrose agar culture medium (Nissui Seiyaku Co.) for 10 days and then a 10^6 CFU/ml suspension was prepared from each of them. A test bacteria or fungi suspension was streaked on an agar plate containing the compound of the present invention with platinum wire loop, and the agar plate was cultured at 37±1 °C for 18 to 20 hours for bacteria or at 27 °C for 7 days for fungi. A concentration at which no growth was seen was taken as minimum inhibitory concentration [MIC(mg/l)]. Symbols in the table mean the followings; • A: Bacillus subtilis, • B: Trichophyton mentagrophytes, • C: Rhodotorula mucilaginosa.

Alternaria alternata = test: Agar dilution MIC (Example 3); details: 168 h, agar plate, 27 °C, 7 days
Experimental: (§2) Series of diluted samples (20000, 10000, 5000, 2500, 1250, 625, 313, 156, 78, 39 mg/l) of the compounds of the invention were prepared using dimethylsulfoxide. A sensitive culture medium-N (Nissui Seiyaku Co.) was used for bacteria and a potato dextrose agar culture medium (Nissui Seiyaku Co.) was used for fungi. 0.5 ml of each sample was added to and mixed with 9.5 ml of the culture medium, poured into a Petri dish and solidified to obtain a plate. As a result, the concentration of the compounds of the invention in the agar culture medium were 1000, 500, 250, 125, 62.5, 31.3, 15.6, 7.8, 3.9, 2.0 mg/l. The bacterium inoculated were cultured in a bouillon for the assay of sensitivity (Nissui Seiyaku Co.) at 37 °C for 20 hours, and the fungi were cultured in the potato dextrose agar culture medium (Nissui Seiyaku Co.) for 10 days and then a 10^6 CFU/ml suspension was prepared from each of them. A test bacteria or fungi suspension was streaked on an agar plate containing the compound of the present invention with platinum wire loop, and the agar plate was cultured at 37±1 °C for 18 to 20 hours for bacteria or at 27 °C for 7 days for fungi. A concentration at which no growth was seen was taken as minimum inhibitory concentration (MIC). Symbols in the tables mean the followings; • A: Bacillus subtilis, • B: Trichophyton mentagrophytes, • C: Staphylococcus aureus, • D: Aspergillus niger, • E: Penicillium funiculosum, • F: Candida albicans, • G: Micrococcus luteus, • H: Corynebacterium aquaticum, • I: Chaetomium globosum, • J: Fusarium moniliforme, • K: Saccharomyces cerevisiae, • L: Rhodotorula rubra, • M: Cladosporium cladosporioides, • N: Alternaria alternata.

[3] = tested on: Trichophyton mentagrophytes; test: Agar dilution MIC (Example 3); details: 168 h, agar plate, 27 °C, 7 days
Experimental: as §2

Candida albicans = test: Agar dilution MIC (Example 3); details: 168 h, agar plate, 27 °C, 7 days
Experimental: as §2

Fusarium moniliforme = test: Agar dilution MIC (Example 3); details: Fusarium verticillioides, 168 h, agar plate, 27 °C, 7 days
Experimental: as §2

[4] = tested on: Cladosporium cladosporioides; test: Agar dilution MIC (Example 3); details: 168 h, agar plate, 27 °C, 7 days
Experimental: as §2

Aspergillus niger = test: Agar dilution MIC (Example 3); details: 168 h, agar plate, 27 °C, 7 days
Experimental: as §2

Rhodotorula rubra = test: Agar dilution MIC (Example 3); details: 168 h, agar plate, 27 °C, 7 days
Experimental: as §2

Saccharomyces cerevisiae = test: Agar dilution MIC (Example 3); details: 168 h, agar plate, 27 °C, 7 days
Experimental: as §2

Penicillium funiculosum = test: Agar dilution MIC (Example 3); details: Talaromyces funiculosus, 168 h, agar plate, 27 °C, 7 days
Experimental: as §2

Chaetomium globosum = test: Agar dilution MIC (Example 3); details: 168 h, agar plate, 27 °C, 7 days
Experimental: as §2

[5] = tested on: Corynebacterium aquaticum; test: Agar dilution MIC (Example 3); details: Leifsonia aquatica, agar plate, 37±1 °C, 18 to 20 hours
Experimental: as §2

[6] = tested on: freshwater green alga (Selenastrum capricornutum); test: Inhibition of propagation of freshwater green alga (Example 4); details: after 72 hours, cell number vs non-treated lot; for inhibition at 0.5 ppm: 500ppb, read-out: Propagation inhibiting rate(%) 500ppb
Experimental: A predetermined amount of each of the compounds of the invention was dissolved in a culture medium containing 10^5 /ml of a freshwater green alga (Selenastrum capricornutum) at a logarithmic growth phase to prepare samples having a concentration of the compound of the invention in the medium of 500 ppb and 50ppb respectively. The samples were stationary cultured at 23±1 °C for […] under continuous illumination.
After 72 hours, the number of cells was measured using a hemacytometer to obtain propagation rate. The propagation inhibiting rate was calculated from comparison with the non-treated lot.

[7] = tested on: Trichophyton mentagrophytes; details: 72 h, 100 ppm
Experimental: 31.3 ml of Trichophyton mentagrophytes to be tested was added to 125 ml of a potato dextrose agar culture medium (Nissui Seiyaku Co.). The medium was stirred not to foam the solutions, poured into plates uniformly and solidified.
Thereafter, predetermined amounts of the compounds of the invention were weighted and diluted with acetone to predetermined concentrations.
Paper disks were impregnated with samples containing predetermined amounts of the compounds of the invention, laid on a filter, dried with air and placed on a plate containing test microbe at equal intervals.
Trichophyton mentagrophytes was cultured at 28 °C for 3 days in a thermostatic chamber and the diameter of each inhibiting zone was measured to evaluate the activity of each compound. Symbols in the table mean the followings; • A: Trichophyton mentagrophytes, • ++: strongly inhibiting zone (equal to or more than 21 mm) is observed, • +: inhibiting zone (10 to 20 mm) is observed, • -: no inhibiting zone is observed.

Bacillus subtilis [8] = test: Agar dilution MIC (Example 2); details: agar plate, 37±1 °C, 18 to 20 hours
Experimental: as §1

Bacillus subtilis [9] = test: Agar dilution MIC (Example 3); details: agar plate, 37±1 °C, 18 to 20 hours
Experimental: as §2

Rhodotorula mucilaginosa = test: Agar dilution MIC (Example 2); details: 168 h, agar plate, 27 °C, 7 days
Experimental: as §1

Micrococcus luteus = test: Agar dilution MIC (Example 3); details: agar plate, 37±1 °C, 18 to 20 hours
Experimental: as §2

| MIC [2] [µg/mL] | MIC (Alternaria alternata) [µg/mL] | MIC [3] [µg/mL] | MIC (Candida albicans) [µg/mL] | MIC (Fusarium moniliforme) [µg/mL] | MIC [4] [µg/mL] | MIC (Aspergillus niger) [µg/mL] | MIC (Rhodotorula rubra) [µg/mL] | MIC (Saccharomyces cerevisiae) [µg/mL] | MIC (Penicillium funiculosum) [µg/mL] | MIC (Chaetomium globosum) [µg/mL] | MIC [5] [µg/mL] | MIC (Bacillus subtilis [8]) [µg/mL] | MIC (Bacillus subtilis [9]) [µg/mL] | MIC (Rhodotorula mucilaginosa) [µg/mL] | MIC (Micrococcus luteus) [µg/mL] | Structure (SMILES) | inhibition at 0.5 ppm [1] [%] | inhibition at 0.05 ppm ([6]; 50ppb, read-out: Propagation inhibiting rate(%) 50ppb) [%] | inhibition at 0.5 ppm [6] [%] | Judgment (Target bacteria: A) [7] |
| --- | --- | --- | --- | --- | --- | --- | --- | --- | --- | --- | --- | --- | --- | --- | --- | --- | --- | --- | --- | --- |
| < 2 | 31.3 (≈ 106 µM) | < 2 | 62.5 (≈ 212 µM) | 31.3 (≈ 106 µM) | 31.3 (≈ 106 µM) | 15.6 (≈ 52.8 µM) | 63 (≈ 213 µM) | 63 (≈ 213 µM) | 15.6 (≈ 52.8 µM) | 31.3 (≈ 106 µM) | 31.3 (≈ 106 µM) | – | – | – | – | Cc1cccc(CN(C)Cc2ccc(C(C)(C)C)cc2)c1C [Compound 4] | 70 | 64 | 95 | ++ (strongly inhibiting zone (equal to or more than 21 mm) is observed) |
| 7.8 (≈ 24.2 µM) | – | 7.8 (≈ 24.2 µM) | 62.5 (≈ 194 µM) | – | – | 125 (≈ 388 µM) | – | – | 62.5 (≈ 194 µM) | – | – | 7.8 (≈ 24.2 µM) | 7.8 (≈ 24.2 µM) | – | – | CC(C)(C)c1ccc(CNCc2cccc(Cl)c2Cl)cc1 [Compound 16] | 80 | – | 90 | – |
| 7.8 (≈ 27.7 µM) | 125 (≈ 444 µM) | – | – | – | 125 (≈ 444 µM) | – | 125 (≈ 444 µM) | 63 (≈ 224 µM) | – | 63 (≈ 224 µM) | 7.8 (≈ 27.7 µM) | 31.3 (≈ 111 µM) | – | 15.6 (≈ 55.4 µM) | 15.6 (≈ 55.4 µM) | Cc1cccc(CNCc2ccc(C(C)(C)C)cc2)c1C [Compound 27] | 90 | – | 89 | – |
